Values of other authors, collected in patent US11654095B2, “Method for dyeing keratinous material, comprising the use of an organosilicon compound, a chromophoric compound, a modified fatty acid ester and a sealing reagent II” (Henkel AG & Co. KGaA, priority 2019, dated 2023).
Where two headings read alike, the source gives them in different places.

Row | SMILES | solubility in water (25° C.) | solubility in water (water at 25° C.)
1 | O=S(=O)([O-])c1ccc(N=Nc2c(O)ccc3ccccc23)cc1.[Na+] [Acid Orange 7, sodium salt of 4-[(2-hydroxy-1-naphthyl)azo]benzene sulphonate] | more than 7 g/L | –
2 | Nc1cc(S(=O)(=O)[O-])cc2cc(S(=O)(=O)[O-])c(N=Nc3ccccc3)c(O)c12.[Na+].[Na+] [Acid Red 33, disodium salt of 5-amino-4-hydroxy-3-(phenylazo)-naphthalene-2,7-disulphonate] | 2500 µg/mL | –
3 | O=C([O-])c1c(Cl)c(Cl)c(Cl)c(Cl)c1-c1c2c(Br)cc(=O)c(Br)c-2oc2c(Br)c(O)cc(Br)c12.O=C([O-])c1c(Cl)c(Cl)c(Cl)c(Cl)c1-c1c2c(Br)cc(=O)c(Br)c-2oc2c(Br)c(O)cc(Br)c12.[Na+].[Na+] [Acid Red 92, disodium salt of 3,4,5,6-tetrachloro-2-(1,4,5,8-tetrabromo-6-hydroxy-3-oxoxanthen-9-yl)benzoic acid] | greater than 10 g/L | –
4 | O=C([O-])C1=NN(c2ccc(S(=O)(=O)[O-])cc2)C(=O)C1N=Nc1ccc(S(=O)(=O)[O-])cc1.[Na+].[Na+].[Na+] (stereo not shown) [Acid Yellow 23, trisodium salt of 4,5-dihydro-5-oxo-1-(4-sulfophenyl)-4-((4-sulfophenyl)azo)-1H-pyrazole-3-carboxylic acid] | – | highly soluble
